Measured values published in patent EP3717657B1, “A SYSTEM FOR ASSESSING MICROBIAL SUSCEPTIBILITY TO ANTIBIOTIC AGENTS” (Ascilion AB, priority 2017, dated 2019).
In brackets after ≈: the same amount, converted by molar mass. Each block holds one molecule with its values, some of them ahead of it.

How the values were obtained:
[1] = tested on: Enterococcus faecalis (ATCC 29212); test: Antibiotic susceptibility by glucose consumption in culture medium, blood culture bottle inoculum (Example 1); format: cell-based; settings: for Glucose concentration t=0: 0 minutes; for Glucose concentration t=60: 60 minutes; for Glucose concentration t=120: 120 minutes; for Glucose concentration t=180: 180 minutes; for Glucose concentration t=240: 240 minutes; for dC/dT: rate of change in glucose concentration;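 for dC/dT: rate calculated between the 60 and 180 min readings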
Outline: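 Bacteria grown in blood culture bottles until positive, diluted 1:100 into cation-adjusted Mueller-Hinton broth with glucose at 1.0 mg/mL plus antibiotic (µg/mL). Glucose read by glucometer at 0–240 min.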

[2] = tested on: Escherichia coli ATCC 25922; settings: E.coli, cited from earlier work
[3] = tested on: Staphylococcus aureus ATCC 29213; settings: S.aureus, cited from earlier work; for MIC EUCAST, range in parentheses: range obtained by EUCAST from ISO 20776-1: 2006; for MIC EUCAST: reference MIC value, EUCAST QC tables Version 7.0, 2017
[4] = tested on: Enterococcus faecalis ATCC 29212; settings: E.faecalis, cited from earlier work
[5] = range obtained by EUCAST from ISO 20776-1: 2006
[6] = reference MIC value, EUCAST QC tables Version 7.0, 2017

MIC ([1]; Enterococcus faecalis, ATCC29212, E.faecalis, initial value, disregarded because rate of decrease was higher at 32 µg/mL, read-out: MIC value initially obtained): 4 µg/mL (≈ 9.36 µM)
Structure (SMILES): CO[C@@]1(NC(=O)Cc2cccs2)C(=O)N2C(C(=O)O)=C(COC(N)=O)CS[C@@H]21 [Cefoxitin]
F=the rate of change in glucose concentration in relation to the reference ([1]; [Ab] 0,5 µg/mL): 88% | Glucose concentration t=0 ([1]; [Ab] 0,5 µg/mL): 145 | Glucose concentration t=60 ([1]; [Ab] 0,5 µg/mL): 150 | Glucose concentration t=120 ([1]; [Ab] 0,5 µg/mL): 144 | Glucose concentration t=180 ([1]; [Ab] 0,5 µg/mL): 87 | Glucose concentration t=240 ([1]; [Ab] 0,5 µg/mL): 32 | dC/dT ([1]; [Ab] 0,5 µg/mL): 32 | F=the rate of change in glucose concentration in relation to the reference ([1]; [Ab] 0,25 µg/mL): 93% | Glucose concentration t=0 ([1]; [Ab] 0,25 µg/mL): 151 | Glucose concentration t=60 ([1]; [Ab] 0,25 µg/mL): 155 | Glucose concentration t=120 ([1]; [Ab] 0,25 µg/mL): 138 | Glucose concentration t=180 ([1]; [Ab] 0,25 µg/mL): 88 | Glucose concentration t=240 ([1]; [Ab] 0,25 µg/mL): 34 | dC/dT ([1]; [Ab] 0,25 µg/mL): 34 | F=the rate of change in glucose concentration in relation to the reference ([1]; [Ab] 1 µg/mL): 85% | Glucose concentration t=0 ([1]; [Ab] 1 µg/mL): 148 | Glucose concentration t=60 ([1]; [Ab] 1 µg/mL): 159 | Glucose concentration t=120 ([1]; [Ab] 1 µg/mL): 142 | Glucose concentration t=180 ([1]; [Ab] 1 µg/mL): 98 | Glucose concentration t=240 ([1]; [Ab] 1 µg/mL): 31 | dC/dT ([1]; [Ab] 1 µg/mL): 31 | F=the rate of change in glucose concentration in relation to the reference ([1]; [Ab] 2 µg/mL): 99% | Glucose concentration t=0 ([1]; [Ab] 2 µg/mL): 149 | Glucose concentration t=60 ([1]; [Ab] 2 µg/mL): 169 | Glucose concentration t=120 ([1]; [Ab] 2 µg/mL): 145 | Glucose concentration t=180 ([1]; [Ab] 2 µg/mL): 98 | Glucose concentration t=240 ([1]; [Ab] 2 µg/mL): 36 | dC/dT ([1]; [Ab] 2 µg/mL): 36 | F=the rate of change in glucose concentration in relation to the reference ([1]; [Ab] 4 µg/mL): 74% | Glucose concentration t=0 ([1]; [Ab] 4 µg/mL): 150 | Glucose concentration t=60 ([1]; [Ab] 4 µg/mL): 159 | Glucose concentration t=120 ([1]; [Ab] 4 µg/mL): 146 | Glucose concentration t=180 ([1]; [Ab] 4 µg/mL): 106 | Glucose concentration t=240 ([1]; [Ab] 4 µg/mL): 27 | dC/dT ([1]; [Ab] 4 µg/mL): 27 | F=the rate of change in glucose concentration in relation to the reference ([1]; [Ab] 8 µg/mL): 63% | Glucose concentration t=0 ([1]; [Ab] 8 µg/mL): 144 | Glucose concentration t=60 ([1]; [Ab] 8 µg/mL): 149 | Glucose concentration t=120 ([1]; [Ab] 8 µg/mL): 147 | Glucose concentration t=180 ([1]; [Ab] 8 µg/mL): 104 | Glucose concentration t=240 ([1]; [Ab] 8 µg/mL): 23 | dC/dT ([1]; [Ab] 8 µg/mL): 23 | F=the rate of change in glucose concentration in relation to the reference ([1]; [Ab] 16 µg/mL): 68% | Glucose concentration t=0 ([1]; [Ab] 16 µg/mL): 148 | Glucose concentration t=60 ([1]; [Ab] 16 µg/mL): 154 | Glucose concentration t=120 ([1]; [Ab] 16 µg/mL): 148 | Glucose concentration t=180 ([1]; [Ab] 16 µg/mL): 105 | Glucose concentration t=240 ([1]; [Ab] 16 µg/mL): 25 | dC/dT ([1]; [Ab] 16 µg/mL): 25 | F=the rate of change in glucose concentration in relation to the reference ([1]; [Ab] 32 µg/mL): 74% | Glucose concentration t=0 ([1]; [Ab] 32 µg/mL): 148 | Glucose concentration t=60 ([1]; [Ab] 32 µg/mL): 155 | Glucose concentration t=120 ([1]; [Ab] 32 µg/mL): 140 | Glucose concentration t=180 ([1]; [Ab] 32 µg/mL): 102 | Glucose concentration t=240 ([1]; [Ab] 32 µg/mL): 27 | dC/dT ([1]; [Ab] 32 µg/mL): 27 | MIC EUCAST, range in parentheses [2, 5]: 2 to 8 µg/mL | MIC EUCAST [2, 6]: 4 µg/mL (≈ 9.36 µM) | MIC EUCAST, range in parentheses [3]: 1 to 4 µg/mL | MIC EUCAST [3]: 2 µg/mL (≈ 4.68 µM)

Structure (SMILES): CN[C@H](CC(C)C)C(=O)N[C@H]1C(=O)N[C@@H](CC(N)=O)C(=O)N[C@H]2C(=O)N[C@H]3C(=O)N[C@H](C(=O)N[C@H](C(=O)O)c4cc(O)cc(O)c4-c4cc3ccc4O)[C@H](O)c3ccc(c(Cl)c3)Oc3cc2cc(c3O[C@@H]2O[C@H](CO)[C@@H](O)[C@H](O)[C@H]2O[C@H]2C[C@](C)(N)[C@H](O)[C@H](C)O2)Oc2ccc(cc2Cl)[C@H]1O [Vancomycin]
F=the rate of change in glucose concentration in relation to the reference ([1]; [Ab] 0,5 µg/mL): 82% | Glucose concentration t=0 ([1]; [Ab] 0,5 µg/mL): 154 | Glucose concentration t=60 ([1]; [Ab] 0,5 µg/mL): 155 | Glucose concentration t=120 ([1]; [Ab] 0,5 µg/mL): 148 | Glucose concentration t=180 ([1]; [Ab] 0,5 µg/mL): 96 | dC/dT ([1]; [Ab] 0,5 µg/mL): 30 | F=the rate of change in glucose concentration in relation to the reference ([1]; [Ab] 0,25 µg/mL): 82% | Glucose concentration t=0 ([1]; [Ab] 0,25 µg/mL): 143 | Glucose concentration t=60 ([1]; [Ab] 0,25 µg/mL): 155 | Glucose concentration t=120 ([1]; [Ab] 0,25 µg/mL): 146 | Glucose concentration t=180 ([1]; [Ab] 0,25 µg/mL): 96 | dC/dT ([1]; [Ab] 0,25 µg/mL): 30 | F=the rate of change in glucose concentration in relation to the reference ([1]; [Ab] 1 µg/mL): 75% | Glucose concentration t=0 ([1]; [Ab] 1 µg/mL): 151 | Glucose concentration t=60 ([1]; [Ab] 1 µg/mL): 164 | Glucose concentration t=120 ([1]; [Ab] 1 µg/mL): 153 | Glucose concentration t=180 ([1]; [Ab] 1 µg/mL): 110 | dC/dT ([1]; [Ab] 1 µg/mL): 27 | F=the rate of change in glucose concentration in relation to the reference ([1]; [Ab] 2 µg/mL): 29% | Glucose concentration t=0 ([1]; [Ab] 2 µg/mL): 147 | Glucose concentration t=60 ([1]; [Ab] 2 µg/mL): 160 | Glucose concentration t=120 ([1]; [Ab] 2 µg/mL): 152 | Glucose concentration t=180 ([1]; [Ab] 2 µg/mL): 139 | Glucose concentration t=240 ([1]; [Ab] 2 µg/mL): 94 | dC/dT ([1]; [Ab] 2 µg/mL): 11 | F=the rate of change in glucose concentration in relation to the reference ([1]; [Ab] 4 µg/mL): 19% | Glucose concentration t=0 ([1]; [Ab] 4 µg/mL): 147 | Glucose concentration t=60 ([1]; [Ab] 4 µg/mL): 162 | Glucose concentration t=120 ([1]; [Ab] 4 µg/mL): 153 | Glucose concentration t=180 ([1]; [Ab] 4 µg/mL): 148 | Glucose concentration t=240 ([1]; [Ab] 4 µg/mL): 149 | dC/dT ([1]; [Ab] 4 µg/mL): 7 | F=the rate of change in glucose concentration in relation to the reference ([1]; [Ab] 8 µg/mL): 7% | Glucose concentration t=0 ([1]; [Ab] 8 µg/mL): 150 | Glucose concentration t=60 ([1]; [Ab] 8 µg/mL): 156 | Glucose concentration t=120 ([1]; [Ab] 8 µg/mL): 146 | Glucose concentration t=180 ([1]; [Ab] 8 µg/mL): 151 | Glucose concentration t=240 ([1]; [Ab] 8 µg/mL): 145 | dC/dT ([1]; [Ab] 8 µg/mL): 3 | F=the rate of change in glucose concentration in relation to the reference ([1]; [Ab] 0,125 µg/mL): 83% | Glucose concentration t=0 ([1]; [Ab] 0,125 µg/mL): 148 | Glucose concentration t=60 ([1]; [Ab] 0,125 µg/mL): 154 | Glucose concentration t=120 ([1]; [Ab] 0,125 µg/mL): 149 | Glucose concentration t=180 ([1]; [Ab] 0,125 µg/mL): 94 | dC/dT ([1]; [Ab] 0,125 µg/mL): 30 | F=the rate of change in glucose concentration in relation to the reference ([1]; [Ab] 0,0625 µg/mL): 93% | Glucose concentration t=0 ([1]; [Ab] 0,0625 µg/mL): 145 | Glucose concentration t=60 ([1]; [Ab] 0,0625 µg/mL): 156 | Glucose concentration t=120 ([1]; [Ab] 0,0625 µg/mL): 139 | Glucose concentration t=180 ([1]; [Ab] 0,0625 µg/mL): 89 | dC/dT ([1]; [Ab] 0,0625 µg/mL): 34 | MIC EUCAST, range in parentheses [4, 5]: 1 to 4 µg/mL | MIC EUCAST [4, 6]: 2 µg/mL (≈ 1.38 µM) | MIC EUCAST, range in parentheses [3]: 0.5 to 2 µg/mL | MIC EUCAST [3]: 1 µg/mL (≈ 0.69 µM)
